Literature values in patent publication US7943663B2, “Process and an apparatus for producing episesamin-rich compositions” (Suntory Holdings Limited, priority 2005, dated 2011).

Columns and labels:
[1] = system: fatty acid synthases; details: rats, separately administered orally; sesamin versus episesamin
[2] = system: β-oxidation enzymes in the liver; details: rats, separately administered orally; compared with sesamin
[3] = rat, po

| Structure (SMILES) | activity for inhibiting fatty acid synthases [1] | gene expression and enzymatic activity of β-oxidation enzymes in the liver [2] | transfer into organs (in vivo distribution) [3] |
| --- | --- | --- | --- |
| c1cc2c(cc1[C@H]1OC[C@H]3[C@@H]1CO[C@@H]3c1ccc3c(c1)OCO3)OCO2 [Sesamin, sesamin] | no difference |  |  |
| c1cc2c(cc1[C@H]1OC[C@H]3[C@@H]1CO[C@H]3c1ccc3c(c1)OCO3)OCO2 [Episesamin, episesamin] | no difference | markedly increased | at least twice as much as that of sesamin |
